Laboratory results taken from the kinase profiling compilation of Christmann-Franck et al. (2016).
Several values for one entry are separate records, joined by “and”; a condition that tells them apart may be missing. Equal entries are not always repeated.

What was measured:
Test in all cases: radiometric filter-binding kinase assay, Kinase HotSpot
Conditions in all cases: compound 0.5 µM; ATP 10 µM
CDC42BPA (human) = CDC42BPA (human) (UniProt Q5VT25)
FGFR4 (human) = FGFR4 (human) (UniProt P22455)
CHEK1 (human) = CHEK1 (human) (UniProt O14757)
TSSK2 (human) = TSSK2 (human) (UniProt Q96PF2)
TSSK2 (human), sequence (Q96PF2 whole entry, looked up): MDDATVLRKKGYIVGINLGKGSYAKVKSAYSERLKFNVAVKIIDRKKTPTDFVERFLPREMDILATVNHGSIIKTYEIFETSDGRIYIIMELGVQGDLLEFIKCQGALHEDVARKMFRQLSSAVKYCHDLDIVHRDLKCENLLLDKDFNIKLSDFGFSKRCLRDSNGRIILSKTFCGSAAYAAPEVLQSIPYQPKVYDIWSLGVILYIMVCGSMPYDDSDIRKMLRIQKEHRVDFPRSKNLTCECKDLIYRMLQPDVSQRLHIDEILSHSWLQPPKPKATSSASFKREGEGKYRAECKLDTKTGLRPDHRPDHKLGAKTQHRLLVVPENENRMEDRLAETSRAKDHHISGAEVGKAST

IRAK4 (human) = IRAK4 (human) (UniProt Q9NWZ3)
IGF1R (human) = IGF1R (human) (UniProt P08069)
DSTYK (human) = DSTYK (human) (UniProt Q6XUX3)
SRMS (human) = SRMS (human) (UniProt Q9H3Y6)
SRMS (human), sequence (Q9H3Y6 whole entry, looked up): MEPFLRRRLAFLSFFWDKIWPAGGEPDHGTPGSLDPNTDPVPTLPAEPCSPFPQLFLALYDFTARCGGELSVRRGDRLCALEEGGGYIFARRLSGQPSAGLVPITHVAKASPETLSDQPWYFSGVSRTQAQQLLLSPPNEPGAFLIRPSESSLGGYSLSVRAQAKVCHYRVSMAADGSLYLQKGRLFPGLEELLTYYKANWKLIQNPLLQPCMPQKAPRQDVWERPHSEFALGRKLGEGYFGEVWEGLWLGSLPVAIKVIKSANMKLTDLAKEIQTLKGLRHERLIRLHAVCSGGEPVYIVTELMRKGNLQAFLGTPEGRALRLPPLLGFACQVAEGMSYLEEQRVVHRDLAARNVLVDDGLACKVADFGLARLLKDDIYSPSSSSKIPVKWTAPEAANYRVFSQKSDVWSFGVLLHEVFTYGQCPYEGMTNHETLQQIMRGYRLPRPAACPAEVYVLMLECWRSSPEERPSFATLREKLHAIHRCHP

CAMK1G (human) = CAMK1G (human) (UniProt Q96NX5)
NUAK2 (human) = NUAK2 (human) (UniProt Q9H093)
NUAK2 (human), sequence (Q9H093 whole entry, looked up): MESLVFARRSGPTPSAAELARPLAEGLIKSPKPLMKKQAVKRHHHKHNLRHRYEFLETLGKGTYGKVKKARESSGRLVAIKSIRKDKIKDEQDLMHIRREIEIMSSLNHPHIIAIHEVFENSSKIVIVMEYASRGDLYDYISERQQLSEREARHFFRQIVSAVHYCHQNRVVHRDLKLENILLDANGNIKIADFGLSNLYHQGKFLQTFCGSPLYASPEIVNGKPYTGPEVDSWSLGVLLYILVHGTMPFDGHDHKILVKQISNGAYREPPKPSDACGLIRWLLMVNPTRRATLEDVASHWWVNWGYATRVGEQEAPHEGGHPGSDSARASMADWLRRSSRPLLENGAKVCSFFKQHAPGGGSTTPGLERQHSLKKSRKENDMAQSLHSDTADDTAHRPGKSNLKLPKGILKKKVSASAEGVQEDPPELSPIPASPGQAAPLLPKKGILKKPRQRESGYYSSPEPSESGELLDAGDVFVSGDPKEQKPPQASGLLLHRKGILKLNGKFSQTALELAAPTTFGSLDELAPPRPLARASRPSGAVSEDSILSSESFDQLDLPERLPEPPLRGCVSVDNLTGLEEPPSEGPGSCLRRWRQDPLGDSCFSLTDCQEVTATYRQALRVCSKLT

EPHB3 (human) = EPHB3 (human) (UniProt P54753)
TGFBR1 (human) = TGFBR1 (human) (UniProt P36897)
ADRBK2 (human) = ADRBK2 (human) (UniProt P35626)
TEC (human) = TEC (human) (UniProt P42680)
RPS6KA6 KD1 KD2 (human) = RPS6KA6 KD1 KD2 (human) (UniProt Q9UK32)
DYRK2 (human) = DYRK2 (human) (UniProt Q92630)
ADRBK1 (human) = ADRBK1 (human) (UniProt P25098)
ADRBK1 (human), sequence (P25098 whole entry, looked up): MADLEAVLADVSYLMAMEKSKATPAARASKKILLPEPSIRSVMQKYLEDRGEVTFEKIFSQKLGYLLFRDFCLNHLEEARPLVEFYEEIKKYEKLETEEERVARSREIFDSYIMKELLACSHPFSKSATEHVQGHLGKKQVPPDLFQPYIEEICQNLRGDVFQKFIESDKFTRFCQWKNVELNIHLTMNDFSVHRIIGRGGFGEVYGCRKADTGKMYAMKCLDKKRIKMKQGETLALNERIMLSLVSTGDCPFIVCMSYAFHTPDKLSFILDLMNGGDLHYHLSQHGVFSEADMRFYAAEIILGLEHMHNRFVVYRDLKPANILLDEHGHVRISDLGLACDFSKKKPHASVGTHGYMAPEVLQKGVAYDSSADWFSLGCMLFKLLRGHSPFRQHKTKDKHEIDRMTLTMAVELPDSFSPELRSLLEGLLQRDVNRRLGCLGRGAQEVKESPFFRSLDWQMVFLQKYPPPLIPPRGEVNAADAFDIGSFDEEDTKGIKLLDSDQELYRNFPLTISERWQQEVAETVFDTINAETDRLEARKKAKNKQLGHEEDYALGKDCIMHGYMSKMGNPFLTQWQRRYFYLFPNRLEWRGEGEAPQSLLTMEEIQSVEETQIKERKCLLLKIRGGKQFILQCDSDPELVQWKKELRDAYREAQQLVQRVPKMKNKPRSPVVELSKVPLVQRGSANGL

RAF1 (human) = RAF1 (human) (UniProt P04049)
PDGFRA (human) = PDGFRA (human) (UniProt P16234)
NEK9 (human) = NEK9 (human) (UniProt Q8TD19)
LYN (human) = LYN (human) (UniProt P07948)
STK25 (human) = STK25 (human) (UniProt O00506)
PHKG1 (human) = PHKG1 (human) (UniProt Q16816)
NEK6 (human) = NEK6 (human) (UniProt Q9HC98)
NEK6 (human), sequence (Q9HC98 whole entry, looked up): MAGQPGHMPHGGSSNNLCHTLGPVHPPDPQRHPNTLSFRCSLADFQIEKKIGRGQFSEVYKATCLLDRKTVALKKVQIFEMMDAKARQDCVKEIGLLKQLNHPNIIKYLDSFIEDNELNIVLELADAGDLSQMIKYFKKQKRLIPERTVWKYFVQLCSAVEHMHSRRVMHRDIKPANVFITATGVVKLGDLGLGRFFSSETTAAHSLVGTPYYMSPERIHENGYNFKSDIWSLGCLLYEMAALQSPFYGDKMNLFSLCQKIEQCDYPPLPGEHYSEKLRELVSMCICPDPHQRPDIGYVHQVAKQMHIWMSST

MAP3K9 (human) = MAP3K9 (human) (UniProt P80192)
DAPK2 (human) = DAPK2 (human) (UniProt Q9UIK4)
PRKCD (human) = PRKCD (human) (UniProt Q05655)
PTK2 (human) = PTK2 (human) (UniProt Q05397)
EPHB4 (human) = EPHB4 (human) (UniProt P54760)
EPHB4 (human), sequence (P54760 whole entry, looked up): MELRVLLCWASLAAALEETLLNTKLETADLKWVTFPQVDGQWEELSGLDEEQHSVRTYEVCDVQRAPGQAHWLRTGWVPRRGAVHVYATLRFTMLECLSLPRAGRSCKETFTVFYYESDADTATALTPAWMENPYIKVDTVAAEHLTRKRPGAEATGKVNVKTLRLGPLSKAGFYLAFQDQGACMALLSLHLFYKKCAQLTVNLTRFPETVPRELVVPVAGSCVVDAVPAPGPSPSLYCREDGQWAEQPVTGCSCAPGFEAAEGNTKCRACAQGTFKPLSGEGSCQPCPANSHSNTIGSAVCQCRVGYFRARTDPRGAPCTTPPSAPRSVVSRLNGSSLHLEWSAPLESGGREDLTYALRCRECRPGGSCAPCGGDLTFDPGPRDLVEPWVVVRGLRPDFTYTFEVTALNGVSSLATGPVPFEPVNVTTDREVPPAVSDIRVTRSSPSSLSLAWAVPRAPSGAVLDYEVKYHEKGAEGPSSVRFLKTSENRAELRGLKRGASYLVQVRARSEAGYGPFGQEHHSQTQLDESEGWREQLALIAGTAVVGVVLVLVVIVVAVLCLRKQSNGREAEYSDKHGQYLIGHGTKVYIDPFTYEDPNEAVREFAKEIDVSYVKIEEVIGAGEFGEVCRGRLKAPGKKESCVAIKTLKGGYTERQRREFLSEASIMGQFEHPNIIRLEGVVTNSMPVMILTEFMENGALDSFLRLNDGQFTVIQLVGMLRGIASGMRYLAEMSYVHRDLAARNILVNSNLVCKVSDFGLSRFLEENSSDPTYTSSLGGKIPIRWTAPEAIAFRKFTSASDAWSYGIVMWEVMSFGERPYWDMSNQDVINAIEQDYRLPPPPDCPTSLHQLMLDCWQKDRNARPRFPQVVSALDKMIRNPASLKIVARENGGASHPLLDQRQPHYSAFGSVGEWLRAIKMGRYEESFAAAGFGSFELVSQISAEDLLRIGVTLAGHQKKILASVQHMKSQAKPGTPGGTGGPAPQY

NEK3 (human) = NEK3 (human) (UniProt P51956)
ACVR1 (human) = ACVR1 (human) (UniProt Q04771)
ACVR1 (human), sequence (Q04771 whole entry, looked up): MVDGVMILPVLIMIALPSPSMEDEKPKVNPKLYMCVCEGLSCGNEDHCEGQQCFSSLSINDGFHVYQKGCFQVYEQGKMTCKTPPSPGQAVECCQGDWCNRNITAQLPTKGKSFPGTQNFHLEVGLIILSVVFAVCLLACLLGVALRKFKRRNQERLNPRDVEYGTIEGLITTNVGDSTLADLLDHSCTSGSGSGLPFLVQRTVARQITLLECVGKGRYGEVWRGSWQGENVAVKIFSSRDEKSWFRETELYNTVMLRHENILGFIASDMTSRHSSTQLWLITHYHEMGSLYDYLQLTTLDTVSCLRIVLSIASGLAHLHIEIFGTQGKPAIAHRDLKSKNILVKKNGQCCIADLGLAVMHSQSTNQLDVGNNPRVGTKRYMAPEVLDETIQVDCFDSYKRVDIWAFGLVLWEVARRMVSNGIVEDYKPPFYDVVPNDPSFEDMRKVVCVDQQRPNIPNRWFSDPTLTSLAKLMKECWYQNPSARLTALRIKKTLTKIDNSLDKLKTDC

PHKG2 (human) = PHKG2 (human) (UniProt P15735)
PHKG2 (human), sequence (P15735 whole entry, looked up): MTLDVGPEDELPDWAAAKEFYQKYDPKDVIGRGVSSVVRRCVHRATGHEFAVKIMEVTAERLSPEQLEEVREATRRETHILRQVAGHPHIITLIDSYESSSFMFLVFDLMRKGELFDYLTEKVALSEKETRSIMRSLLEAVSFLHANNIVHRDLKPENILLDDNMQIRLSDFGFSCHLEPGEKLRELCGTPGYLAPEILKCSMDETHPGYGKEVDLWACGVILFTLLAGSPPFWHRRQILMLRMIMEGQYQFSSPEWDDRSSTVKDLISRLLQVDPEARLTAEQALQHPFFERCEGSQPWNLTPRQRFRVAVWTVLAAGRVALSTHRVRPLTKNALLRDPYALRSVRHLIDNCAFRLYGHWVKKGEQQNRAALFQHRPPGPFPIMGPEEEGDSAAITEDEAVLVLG

MET (human) = MET (human) (UniProt P08581)
CDC42BPB (human) = CDC42BPB (human) (UniProt Q9Y5S2)
STK16 (human) = STK16 (human) (UniProt O75716)
ABL1 (human) = ABL1 (human) (UniProt P00519)
LIMK1 (human) = LIMK1 (human) (UniProt P53667)
LIMK1 (human), sequence (P53667 whole entry, looked up): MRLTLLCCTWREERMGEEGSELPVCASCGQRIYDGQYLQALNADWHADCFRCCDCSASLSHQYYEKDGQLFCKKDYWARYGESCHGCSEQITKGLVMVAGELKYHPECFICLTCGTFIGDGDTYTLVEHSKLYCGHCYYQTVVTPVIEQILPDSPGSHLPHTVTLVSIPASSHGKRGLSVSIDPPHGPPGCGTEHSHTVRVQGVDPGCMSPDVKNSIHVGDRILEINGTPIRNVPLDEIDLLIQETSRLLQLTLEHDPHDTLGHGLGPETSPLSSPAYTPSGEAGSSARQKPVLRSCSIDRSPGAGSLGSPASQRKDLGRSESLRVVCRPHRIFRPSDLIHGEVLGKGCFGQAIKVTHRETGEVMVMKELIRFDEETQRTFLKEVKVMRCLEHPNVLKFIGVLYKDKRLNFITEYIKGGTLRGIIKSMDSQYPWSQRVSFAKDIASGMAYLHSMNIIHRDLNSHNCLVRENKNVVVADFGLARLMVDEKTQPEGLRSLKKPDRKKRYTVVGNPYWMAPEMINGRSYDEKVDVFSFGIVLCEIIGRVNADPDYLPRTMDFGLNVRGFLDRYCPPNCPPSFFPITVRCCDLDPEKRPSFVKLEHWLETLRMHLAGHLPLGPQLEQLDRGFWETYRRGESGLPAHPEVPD

Row | SMILES | residual activity (CDC42BPA (human)) | residual activity (FGFR4 (human)) | residual activity (CHEK1 (human)) | residual activity (IRAK4 (human)) | residual activity (DSTYK (human)) | residual activity (SRMS (human)) | residual activity (CAMK1G (human)) | residual activity (NUAK2 (human)) | residual activity (EPHB3 (human)) | residual activity (TGFBR1 (human)) | residual activity (ADRBK2 (human)) | residual activity (TEC (human)) | residual activity (RPS6KA6 KD1 KD2 (human)) | residual activity (DYRK2 (human)) | residual activity (ADRBK1 (human)) | residual activity (RAF1 (human)) | residual activity (PDGFRA (human)) | residual activity (NEK9 (human)) | residual activity (LYN (human)) | residual activity (STK25 (human)) | other results
1 | CC(=O)c1ccc(N2CCOCC2)cc1O | 100% | 108% | 103% | 120% | 95.3% | 94.7% | 101% | 104% | 92.3% | 96.6% | 89.1% | 139% | 95.1% | 101% | 99% | 96.2% | 94.7% | 93.9% | 106% and 98.8% | 90.9% | residual activity (TSSK2 (human)): 102%; residual activity (IGF1R (human)): 106%; residual activity (PHKG1 (human)): 96.5%; residual activity (NEK6 (human)): 96.5%; residual activity (MAP3K9 (human)): 112%; residual activity (DAPK2 (human)): 106%; residual activity (PRKCD (human)): 97.4%; residual activity (PTK2 (human)): 107%; residual activity (EPHB4 (human)): 97.6%; residual activity (NEK3 (human)): 103%; residual activity (ACVR1 (human)): 107%; residual activity (PHKG2 (human)): 98.1%; residual activity (MET (human)): 122%; residual activity (CDC42BPB (human)): 87.2%; residual activity (STK16 (human)): 110%; residual activity (ABL1 (human)): 98.9%; residual activity (LIMK1 (human)): 93.6%
2 | CCN(CC)C(=O)c1ccc(Nc2nc(OCC3CCCCC3)c3nc[nH]c3n2)cc1 | 90.7% | 94.4% | 66.1% | 92.4% | 106% | 84.7% | 96.1% | 23.1% | 99.5% | 100% | 92.7% | 63% | 46.2% | 98.2% | 92.6% | 86.3% | 66.6% | 81.9% | 78.2% and 89.7% | 85.2% | residual activity (TSSK2 (human)): 87.4%; residual activity (IGF1R (human)): 28.4%; residual activity (PHKG1 (human)): 85.9%; residual activity (NEK6 (human)): 101%; residual activity (MAP3K9 (human)): 3.8%; residual activity (DAPK2 (human)): 91.7%; residual activity (PRKCD (human)): 76.7%; residual activity (PTK2 (human)): 76.9%; residual activity (EPHB4 (human)): 85%; residual activity (NEK3 (human)): 69.4%; residual activity (ACVR1 (human)): 98.8%; residual activity (PHKG2 (human)): 96.6%; residual activity (MET (human)): 85.3%; residual activity (CDC42BPB (human)): 99.3%; residual activity (STK16 (human)): 33.6%; residual activity (ABL1 (human)): 67.1%; residual activity (LIMK1 (human)): 35.2%
3 | COc1ccc2c(c[n+](C)c3c4cc5c(cc4ccc23)OCO5)c1OC | 84.8% | 90.1% | 94.4% | 116% | 86.4% | 86% | 100% | 98.9% | 95.4% | 98.5% | 88.4% | 116% | 91.1% | 94.5% | 96.6% | 96.7% | 101% | 97% | 95.4% and 100% | 98.8% | residual activity (IGF1R (human)): 93.3%; residual activity (PHKG1 (human)): 90.4%; residual activity (NEK6 (human)): 104%; residual activity (MAP3K9 (human)): 98.1%; residual activity (DAPK2 (human)): 93.9%; residual activity (PRKCD (human)): 96.8%; residual activity (PTK2 (human)): 102%; residual activity (EPHB4 (human)): 91.7%; residual activity (NEK3 (human)): 95.1%; residual activity (ACVR1 (human)): 93.2%; residual activity (PHKG2 (human)): 94.8%; residual activity (MET (human)): 94.7%; residual activity (CDC42BPB (human)): 107%; residual activity (STK16 (human)): 102%; residual activity (ABL1 (human)): 92.7%; residual activity (LIMK1 (human)): 109%
4 | O=c1cc(N2CCOCC2)oc2c1ccc1ccccc12 | 87.6% | 108% | 104% | 122% | 110% | 97.1% | 102% | 120% | 90% | 98.5% | 102% | 150% | 95.4% | 88.9% | 98.9% | 97.9% | 83.9% | 102% | 102% and 104% | 94.8% | residual activity (TSSK2 (human)): 100%; residual activity (PHKG1 (human)): 98.2%; residual activity (NEK6 (human)): 92.5%; residual activity (MAP3K9 (human)): 111%; residual activity (DAPK2 (human)): 115%; residual activity (PRKCD (human)): 95.1%; residual activity (PTK2 (human)): 108%; residual activity (EPHB4 (human)): 96.3%; residual activity (NEK3 (human)): 111%; residual activity (ACVR1 (human)): 107%; residual activity (PHKG2 (human)): 99.8%; residual activity (MET (human)): 161%; residual activity (CDC42BPB (human)): 98.3%; residual activity (STK16 (human)): 99%; residual activity (ABL1 (human)): 104%; residual activity (LIMK1 (human)): 98%
